Consider 19 compounds from PMC11019550, “Potent Inhibition of E. coli DXP Synthase by a gem-Diaryl Bisubstrate Analog” (ACS Infectious Diseases, 2024).

In one assay the target is T1, EcDXPS (Escherichia coli, UniProt P77488).
T1 construct: made in house
Briefly: DXPS-IspC coupled assay, apparent Ki on wildtype EcDXPS. The format is biochemical. The conditions noted are these: for Ki: read-out: Ki^app; for fold change in Ki^app relative to 1: relative to compound 1. On the procedure:
To determine inhibitor potency, we used the DXPS-DXP reductoisomerae (DXPS-IspC) coupled assay to measure the activity of recombinant purified EcDXPS[24],[25],[31],[44],[50] in the presence of inhibitors. Reactions were initiated by the addition of substrates following a short preincubation of the inhibitor with enzymes, and initial velocities were determined by monitoring reduced nicotinamide adenine dinucleotide phosphate (NADPH) absorbance at 340 nm. Apparent Ki values were determined by fitting initial velocity data to the Morrison equation,[64],[65] which accounts for the tight-binding nature (Ki^app/[E]total < 10)[66] of inhibitors included in this study and allows for rigorous comparison of inhibitor potencies. […] Inhibitor activities were rationalized based on the predictions made from molecular docking of the corresponding PLThDP adducts into the DXPS active site.
All compounds in this study were evaluated as DXPS inhibitors using the DXPS-IspC coupled assay as previously reported.[24] […] The DXPS reaction was initiated by the addition of substrates (50 μM pyruvate and 500 μM D-GAP). The initial rate of depletion of NADPH was monitored at 340 nm and was used to calculate the initial rate of DXP formation in the presence or absence of inhibitor. Initial rates of DXP formation were plotted as a function of [inhibitor], and Ki^app was determined by fitting the data to the Morrison equation (eq 1)[64],[65] in GraphPad Prism. This approach was deemed appropriate as the concentration of free inhibitor cannot be assumed to remain constant for most of these analogs in which Ki^app values approach the concentration of DXPS.[88],[89] Error is reported as standard deviation from three replicates. Active enzyme concentration ([E]T) was determined following Copeland’s method using 8 (Figure S2B).[88]
The coupled assay was initiated by adding 20 μL of a 10× substrate stock to the preincubated E + I mixture to give a final volume of 200 μL. The final concentration of D-GAP was held constant at 500 μM, and [pyruvate] was added to final concentrations between 0 and 250 μM. The initial rate of NADPH depletion in the IspC-coupled reaction was monitored at 340 nm and was used to calculate the initial rate of DXP formation in the presence or absence of inhibitor. Initial rates were plotted as a function of [pyruvate]. […] Model discrimination analysis employing the Akaike information criterion was performed as well as Lineweaver–Burk analysis to determine the mixed model as the best fit. In all cases, error bars represent the standard deviation from three replicates.

Assay [1] concerns porcine pyruvate dehydrogenase (PDH) E1 subunit. Description: Inhibition of porcine pyruvate dehydrogenase (PDH). The format is biochemical. The conditions noted are these: DXPS over porcine PDH. From the text:
As noted, DXPS has a large active site and follows a mechanism requiring ternary complex formation, distinct from other ThDP-dependent pyruvate decarboxylases. We hypothesized that the sterically demanding scaffold of 8, predicted to engage both substrate binding sites, should display selectivity for DXPS. In a preliminary assessment, we tested 8 as an inhibitor of porcine pyruvate dehydrogenase (PDH) E1 subunit. […] For comparison, the selectivity ratio for 1 was estimated to be >15,000-fold for DXPS over porcine PDH.
Figure S5. Evaluation of inhibitory activity of 8 against mammalian porcine pyruvate dehydrogenase (PDH). Porcine PDH (0.01 U/mL) and inhibitor (8 or MAP positive control) were preincubated for 10 minutes at 25 °C in enzyme buffer (2 mM MgCl2, 5 mM L-cysteine, 1 mM ThDP, 300 μM TCEP, 100 mM HEPES pH 8, 2.5 mM NAD +, and 100 μM coenzyme A). The reaction was initiated by addition of pyruvate (60 μM). The change in absorbance at 340 nm over time was measured and used to calculate the initial rate of NADH formation. The % activity of PDH in the presence of 8 or MAP was plotted using GraphPad Prism version 9. There is 21% inhibition of PDH activity observed in the presence of compound 8 at a concentration of 1 mM.
Experiments were performed in triplicate. Error bars represent standard error.
Figure S6. Replicate progress curves for DXP formation in the presence or absence of inhibitors 8 or 10 with EcDXPS. A) Progress curves for formation of DXP in the presence of 8 display time-dependence of inhibition. B) Progress curves for formation of DXP in the presence of descarboxyl […]

T1 sequence (P77488 whole entry): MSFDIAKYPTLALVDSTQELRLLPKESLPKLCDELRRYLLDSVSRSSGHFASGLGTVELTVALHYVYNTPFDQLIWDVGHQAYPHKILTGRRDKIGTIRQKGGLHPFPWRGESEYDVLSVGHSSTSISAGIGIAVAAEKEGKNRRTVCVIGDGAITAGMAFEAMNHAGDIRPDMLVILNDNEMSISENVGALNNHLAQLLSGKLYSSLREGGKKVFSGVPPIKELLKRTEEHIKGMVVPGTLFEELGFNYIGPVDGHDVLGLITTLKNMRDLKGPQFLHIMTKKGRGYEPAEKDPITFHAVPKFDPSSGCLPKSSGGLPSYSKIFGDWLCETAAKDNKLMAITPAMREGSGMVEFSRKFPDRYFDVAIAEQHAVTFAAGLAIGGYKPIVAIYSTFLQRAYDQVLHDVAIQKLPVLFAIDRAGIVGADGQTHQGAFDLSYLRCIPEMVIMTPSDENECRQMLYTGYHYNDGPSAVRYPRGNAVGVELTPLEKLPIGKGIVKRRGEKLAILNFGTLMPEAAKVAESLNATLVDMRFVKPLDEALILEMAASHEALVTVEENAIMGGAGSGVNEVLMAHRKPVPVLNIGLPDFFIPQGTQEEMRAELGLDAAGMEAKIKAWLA

Regarding `CC(=O)P(=O)(O)OCCc1cn([C@H](Cc2ccccc2)C(=O)O)nn1` [Compound 1, D-PheTrAP], the Ki on EcDXPS amounted to 260 ± 30 nM. Moreover, the “estimated selectivity ratio for DXPS over porcine PDH” value in assay [1] is > 15,000 fold.

Turning to `CC(=O)P(=O)(O)OCCc1cn([C@H](Cc2ccc(-c3ccccc3)cc2)C(=O)O)nn1` [Compound 2], at EcDXPS, the Ki stood at 8000 ± 1000 nM and the “fold change in Ki^app relative to 1” value was found to be 30 fold. Take `CC(=O)P(=O)(O)OCCc1cn([C@H](Cc2ccc(OCc3ccccc3)cc2)C(=O)O)nn1` [Compound 3]: at EcDXPS, the Ki amounted to 4900 ± 600 nM and the “fold change in Ki^app relative to 1” value turned out to be 19 fold.

Take `CC(=O)P(=O)(O)OCCc1cn([C@H](COCc2ccccc2)C(=O)O)nn1` [Compound 4]: on EcDXPS, the Ki stood at 1420 ± 50 nM and the “fold change in Ki^app relative to 1” value is on record as roughly 5 fold. Taken in the same sequence, the figures for `CC(=O)P(=O)(O)OCCc1cn([C@@H](C(=O)O)c2ccccc2)nn1` [Compound 5] were 2100 ± 200 nM and 8 fold. On to `CC(=O)P(=O)(O)OCCc1cn([C@@H](C(=O)O)C(c2ccccc2)c2ccccc2)nn1` [Compound 6], for which the Ki on EcDXPS is 570 ± 120 nM. Turning to `CC(=O)P(=O)(O)OCCc1cn([C@H](Cc2cccc3ccccc23)C(=O)O)nn1` [Compound 7], the Ki on EcDXPS turned out to be 600 ± 60 nM. Take `COC(=O)C(Cc1ccccc1)(Cc1ccccc1)n1cc(CCOP(=O)(O)C(C)=O)nn1` [Compound 11]: the Ki at EcDXPS worked out at 2900 ± 500 nM. For the same compound, the “fold increase in Ki^app relative to 8” value on EcDXPS (relative to compound 8) was 1000 fold.

As to `CC(=O)P(=O)(O)OCCc1cn(C2(C(=O)O)Cc3ccccc3C2)nn1` [Compound 12], on EcDXPS, the Ki turned out to be 290 ± 40 nM. As to `CC(=O)P(=O)(O)OCCc1cn(C2(C(=O)O)CCCC2)nn1` [Compound 13], on EcDXPS, the Ki turned out to be 530 ± 110 nM. For the compound `CC(=O)P(=O)(O)OCCc1cn([C@H](CC2CCCCC2)C(=O)O)nn1` [Compound 14], on EcDXPS, the Ki turned out to be 260 ± 60 nM. For `CC(=O)P(=O)(O)OCCc1cn([C@@H](C(=O)O)C2CCCCC2)nn1` [Compound 15], at EcDXPS, the Ki was found to be 1600 ± 200 nM and the “fold change in Ki^app relative to 1” value is 6 fold. As to `CC(=O)P(=O)(O)OCCc1cn([C@@H](C(=O)O)C23CC4CC(CC(C4)C2)C3)nn1` [Compound 16], at EcDXPS, the Ki was 360 ± 10 nM. For the compound `CC(=O)P(=O)(O)OCCc1cn([C@H](C(=O)O)C23CC4CC(CC(C4)C2)C3)nn1` [Compound 17], the Ki at EcDXPS amounted to 390 ± 60 nM. Take `CC(=O)P(=O)(O)OCCc1cn([C@@H](CO)Cc2ccccc2)nn1` [Compound 18]: the Ki at EcDXPS turned out to be 13300 ± 1400 nM. On the same count and under the same terms, next, `CC(=O)P(=O)(O)OCCc1cn([C@H](CO)Cc2ccccc2)nn1` [Compound 19]: 13400 ± 1500 nM. Regarding `CC(=O)P(=O)(O)OCCc1cn(C(c2ccccc2)c2ccccc2)nn1.CCN(CC)CC` [Compound 20], at EcDXPS, the Ki was 5420 ± 40 nM and the “fold change in Ki^app relative to 1” value was roughly 21 fold.

Consider `CC(=O)P(=O)(O)OCCc1cn([C@H](Cc2ccccc2)C(c2ccccc2)c2ccccc2)nn1` [Compound 21], for which, at EcDXPS (up to a concentration of 50 μM), the “inhibition of EcDXPS” value is reported as “Minimal inhibition”. As for `CC(=O)P(=O)(O)OCCc1cn([C@@H](Cc2ccccc2)C(c2ccccc2)c2ccccc2)nn1` [Compound 22], the “α (mixed inhibition model)” value at EcDXPS (mixed inhibition model) is on record as greater than 1. Besides, the inhibition mode result on EcDXPS (model discrimination by Akaike's information criterion, varied pyruvate) is “mixed inhibition mode”. For the same compound, at EcDXPS, the Ki turned out to be 96000 ± 10000 nM and the “fold change in Ki^app relative to 1” value was determined as 370 fold.
